Reference: patent US20020010113A1, “Composition” (Colgate-Palmolive Company, priority 1999, published 2002)

Experiments:
[1] = tested on: stratum corneum of pig skin; details: stratum corneum immersed in 5% solution; weight at 90% relative humidity vs dry weight at 0% relative humidity
Text: The epidermis of full thickness pig skin (Animal Technologies, Tyler, Tex.) was removed using a Packard Instruments dermatome, and the stratum corneum was removed via trypsin digestion. Pieces of stratum corneum were then immersed in millipore water, a 5% choline chloride (Aldrich Chemical, Milwaukee, Wis.), or a 5% glycerin solution. Using a dynamic vapour sorption meter (Surface Measurement Systems, Coopersburg, Pa.), the skin was equilibrated under a 0% relative humidity environment until the change in weight varied no more than 0.005% per min. This weight was recorded as the dry weight. The relative humidity was then increased to 90%. The skin was equilibrated at this humidity until the change in weight varied no more than 0.005% per min. This weight was, likewise, recorded and the % water uptake was calculated.

[2] = tested on: Full thickness Yucatan swine skin; details: (3H3C)-choline in 25% shower gel solution (100 mg choline chloride per 20 ml); two 5 minute applications, each rinsed with 10 ml distilled water
Description: The radiolabelling experiment described in this example was carried out to quantify the amount of choline that could adhere to the skin following a water rinse. Full thickness Yucatan swine skin (Charles River, Inc., Wilmington, Mass.) was mounted (dermis side down) onto a special sample holder, the dimensions of which were previously described in U.S. Pat. No. 4,836,014. This sample holder exposed approximately 4.91 cm^2 of the skin. A 1 ml aliquot of (^3H3C)-choline (American Radiolabel Chemicals, Inc., St. Louis, Mo.) containing shower gel was next applied to the surface of the exposed skin. […] After five minutes had elapsed, the shower gel was removed, and the surface of the skin was rinsed with 10 ml of distilled water. A second 1 ml aliquot of the (^3H3C)-choline containing shower gel was then reapplied to the skin. Again, after a 5 minute exposure time, the shower gel was removed and the skin rinsed with 10 ml of distilled water. The skin sample was then removed from its sample holder and air-dried for 10 minutes. Four 4 mm diameter punches were collected from each piece of treated skin, oxidized in a Packard oxidizer, and counted in a Packard 2000 Tri-carb liquid scintillation analyzer (Packard Instruments Inc., Downers Grove, Ill.). To obtain the specific activity, 0.1 ml of the (^3H3C)-choline containing shower gel was counted in the Packard 2000 analyzer.

C[N+](C)(C)CCO.[Cl-] [5% Choline, choline chloride]
% Water Uptake [1]: 89 ± 14% | amount of choline remaining on the skin following a water rinse [2]: 33 μg/cm^2

OCC(O)CO [5% Glycerin, glycerin, reference compound]
% Water Uptake [1]: 75 ± 6%
